Measurements as given in patent US20260275292A1, “MATURATION MEDIUM COMPOSITIONS AND METHODS FOR HUMAN HEART ORGANOID MATURATION” (Board of Trustees of Michigan State University, priority 2022, published 2026).
Counter-ions that a name gives are not always drawn.

What was measured:
human heart organoids [1] = assay: Immunofluorescence, confocal microscopy and image analysis; type: cell-based
Description: Immunofluorescence. Human heart organoids were transferred from the round bottom ultra-low attachment 96 well plate to 1.5 mL microcentrifuge tubes (Eppendorf) using a cut 200 μL pipette tip (to increase tip bore diameter as to not disturb the organoid). Organoids were fixed in 4% paraformaldehyde (VWR) in PBS for 30 minutes. Following, organoids were washed using PBS-Glycine (1.5 g/L) three times for 5 minutes each. Organoids were then blocked and permeabilized using a solution containing 10% Donkey Normal Serum (Sigma), 0.5% Triton X-100 (Sigma), and 0.5% BSA (Thermo Fisher Scientific) in PBS on a thermal mixer at 300 rpm at 4° C. overnight. Organoids were then washed 3 times using PBS and incubated with primary antibodies (Table 4) within a solution containing 1% Donkey Normal Serum, 0.5% Triton X-100, and 0.5% BSA in PBS (hereafter termed “Antibody Solution”) on a thermal mixer at 300 rpm at 4° C. for 24 hours.
Following, organoids were washed 3 times for 5 minutes each using PBS. Organoids were then incubated with secondary antibodies (Table 4) in Antibody Solution on a thermal mixer at 300 rpm at 4° C. for 24 hours in the dark. Subsequently, organoids were washed 3 times for 5 minutes each using PBS and mounted on glass microscope slides (Fisher Scientific). 90 μm Polybead Microspheres (Polyscience, Inc.) were placed between the slide and a No. 1.5 coverslip (VWR) to provide support pillars such that the organoids could retain three dimensionality. Organoids were transferred to the glass microscope slides using a cut 200 uL pipette tip and mounted using a clearing solution described previously^153. T-tubule staining was performed using FITC-conjugated Wheat Germ Agglutinin (WGA) lectins (Sigma).
Confocal Microscopy and Image Analysis. […] Images were analyzed using Fiji. […] Thresholds were generated for the equalized image intensity values.
(§1) Ondansetron treatment. Ondansetron hydrochloride (Sigma) was prepared at 200 μM in DMSO and was further diluted in DMEM/F12 ((Dulbecco's Modified Eagle Medium/Nutrient Mixture F-12) before being sterile filtered via a 0.22 μm PVDF filter (Sigma). Ondansetron was applied to heart organoids at final concentrations of 1 μM, 10 μM, and 100 μM in EMM2/1 medium, and was applied from Day 9 to Day 20 of culture. Organoids were collected on Day 30 for analysis.
DEAB and Retinoic Acid treatment. 4-Diethylaminobenzaldehyde (DEAB) (Sigma) was prepared at 1 M in DMSO, diluted further to 10 mM using DMSO, then finally diluted to 1 mM in DMEM/F12. Retinoic Acid (RA) (Sigma) was prepared at 1 M in DMSO, and diluted to 100 μM in DMEM/F12. Diluted solutions of DEAB and RA were sterile filtered via 0.22 μm PVDF filters (Sigma). […] DEAB, RA, and DEAB+RA were applied to heart organoids from Day 20 to Day 30 of culture using the EMM2/1 strategy. Organoids were collected on Day 30 for analysis.

human heart organoids [2] = assay: FlipGFP (active caspase 3) apoptosis reporter fluorescence in heart organoids; details: 10 μM, 48 hours, Day 28 to Day 30, EMM2/1 organoids
human heart organoids [3] = assay: Voltage imaging with di-8-ANEPPS; type: cell-based; details: 10 and 100 μM conditions
Description: Voltage imaging. Voltage activity within human heart organoids was assessed using di-8-ANEPPS (Thermo Fisher Scientific). Di-8-ANEPPS was solubilized in DMSO per the manufacturer's instructions. A 15 μM solution of di-8-ANEPPS was prepared in respective medium (Control, MM, EMM1, etc.). Organoids were washed twice using RPMI 1640 basal medium, then di-8-ANEPPS was added at a final concentration of 10 μM and incubated for 30 minutes at 37° C. and 5% CO2. Organoids were then washed twice using their respective medium (Control, MM, EMM1, etc.) and transferred to a chambered coverglass slide (Cellvis) using a cut 200 μL pipette tip. Videos were acquired using a Cellvivo microscope (Olympus) at 100 frames per second over 10 total seconds as an image stack at either 20× magnification (ondansetron) or 100× magnification (maturation electrophysiology). Samples were excited at 465 nm excitation and 630 nm emission was collected. Data was processed using Fiji and Microsoft Excel. Baseline F0 of fluorescence intensity F was calculated using the average of the lowest 50 intensity values in the acquired dataset. Fluorescence change ΔF/F0 was calculated using the same method as with Calcium imaging presented above. APD30 and APD90 were measured from the midpoint of the upstroke until 30% or 90% repolarization, respectively^162.
as §1

human heart organoids [4] = assay: Real time RT-PCR gene expression in heart organoids; type: cell-based; details: day 30, EMM2/1 organoids
Description: Real time RT-PCR. Organoids were collected at day 20, 21, 23, 25, and 30 and stored in RNAprotect (Qiagen) at −20° C. RNA was extracted using the Qiagen RNEasy Mini Kit according largely to the manufacturer's instructions. Organoids were lysed using the Bead Mill 4 Homogenizer (Fisher Scientific) at speed 2 for 30 seconds. RNA concentration was measured using a NanoDrop One (Thermo Fisher Scientific). A minimum threshold of […] was required to proceed with reverse transcription. cDNA was generated using the Quantitect Reverse Transcription Kit (Qiagen) and stored at −20° C. Primers for real time qPCR were designed using the Primer Quest tool (Integrated DNA Technologies). SYBR Green (Thermo Fisher Scientific) was used as the DNA intercalating dye and the amplifier for the reaction vessel. Real time qPCR was performed using the QuantStudio 5 Real-Time PCR system (Applied Biosystems) using a total reaction volume of 20 μL. Gene expression levels were normalized to HPRT1 expression in each independent sample. Log base 2 fold change values were obtained using the double delta CT method.

human heart organoids [5] = assay: Brightfield microscopy of organoid size and beating; type: cell-based
human heart organoids [6] = test system: human heart organoids
[7] = 10 μM, Day 20 to Day 30, EMM2/1 organoids

## CCN(CC)c1ccc(C=O)cc1 [DEAB, 4-Diethylaminobenzaldehyde]
Human heart organoids [1]; [7]
  MYL3+ area relative to Untreated organoids: 0.35 fold
  NR2F2+ area relative to Untreated organoids: 0.42 fold

## COc1cccc2c1C(=O)c1c(O)c3c(c(O)c1C2=O)C[C@@](O)(C(=O)CO)C[C@@H]3O[C@H]1C[C@H](N)[C@H](O)[C@H](C)O1 [doxorubicin, Doxorubicin hydrochloride]
Human heart organoids [2]
  FlipGFP fluorescence (apoptosis), positive control: high levels of fluorescence

## Cc1nccn1CC1CCc2c(c3ccccc3n2C)C1=O (stereo not shown) [ondansetron, Ondansetron hydrochloride]
Human heart organoids [3]
  APD30 compared to Untreated: increased
  APD90 compared to Untreated: increased
  action potential amplitude compared to Untreated: decreased
  action potential frequency compared to Untreated: decreased frequencies
Human heart organoids [4]; 10 μM
  MYL2 expression relative to Untreated: 0.58 fold
Human heart organoids [4]; 100 μM
  MYL2 expression relative to Untreated: 0.40 fold
Human heart organoids [5]; 100 μM condition
  beating of heart organoids over time: most marked loss in cardiac activity
Human heart organoids [5]; day 0 to day 30, all concentrations
  beating of heart organoids over time: progressive loss of beating
Human heart organoids [6]
  apoptosis (FlipGFP fluorescence): does not contribute to apoptosis
Human heart organoids [1]; 10 μM, day 9 until day 30, EMM2/1 organoids
  MYL2+ area relative to Untreated: 0.55 fold
Human heart organoids [1]; 100 μM, day 9 until day 30, EMM2/1 organoids
  MYL2+ area relative to Untreated: 0.18 fold
Human heart organoids [1]; 100 μM, day 30, EMM2/1 organoids
  structural organization of organoids compared to Untreated: structurally less organized
Human heart organoids [1]; 1, 10 and 100 μM, day 9 until day 30, EMM2/1 organoids
  MYL7+ area: remained unchanged
